Usually inhibition stands for the percentage by which the read-out fell short of the control. By EC50 is commonly meant the concentration giving half of the maximal effect.

Series [1] has as its system TNF-α production in THP-1 cells. As to the kind of experiment: LPS-induced TNF-α production in differentiated THP-1 cells (FLISA). In kind it is cell-based. To be noted: Homo sapiens, read-out: Percent TNF-α Inhibition; for inhibition at 0.1 µg/mL: 100 ng/ml; for inhibition at 1 µg/mL: 1 ug/ml; for inhibition at 10 µg/mL: 10 ug/ml. On the procedure: The ability to inhibit TNF-α production was analyzed in THP-1 cells, a human acute monocytic leukemia cell line that is widely used to assess monocyte functions. In order to induce maturation, THP-1 cells were plated at 1×10^6 cells/ml and pretreated with 5 nM PMA for two days. Differentiated THP-1 cells were pretreated with various concentrations of TTL3 or its analogs for 1 hour, followed by a 4 hour incubation with 1 μg of LPS (Sigma, St. Louse, Mo.). The p38 inhibitor (SB 203580; Sigma, St. Louis, Mo.) was used as a positive control. Supernatants were collected and stored at −80° C. until assayed for TNF-α activity. A resazurin assay was performed for each analog to evaluate the effects on cell metabolism and viability.
To detect the presence of human TNFα, fluorescent linked immunosorbent assay or FLISA was developed and optimized. 100 μl of beads (6 μm, Spherotech) coated with goat anti-mouse IgG (1 mg/ml, R and D Systems) were mixed with 4 μl of biotin-anti-hTNFα mouse IgG (0.1 mg/ml, R and D Systems) and 2 μl of FMAT Blue-streptavidin (0.1 mg/ml, Applied Biosystems). 50 μl of the mixtures was combined with 50 μl of the supernatant isolated from treated THP-1 cells and added to the black wall FLISA plates (Applied Biosystems) and incubated overnight. The plates were scanned at factory set PMT setting, and the values were plotted and analyzed by Applied Biosystems software.

In series [2] the test system is TNF-α production in HPBMC. As to the kind of experiment: TNF-α levels in LPS-stimulated Human Peripheral Blood Mononuclear cells (ELISA). The format is cell-based. To be noted: 5 hr drug exposure, read-out: EC50 Inhibition of TNF-α production. The procedure: (§1) Eighty μl of 3.1×10^5/ml Human Peripheral Blood Mononuclear cells (HPBMC) were seeded in Costar 3904 96-well plate in LGM-3 medium and cultured for 12 hr at 37° C., 5% CO2 and 95% humidified air. 10 μl of 8-point half-log serial dilutions of LT-1-85, CC-3-19, CC-3-13P, formula (IIB-A1) and CC-3-22 prepared in LGM-3 medium was added to the cells and incubated for 1 hr. Subsequently, 10 μl of 500 ng/ml lipopolysaccharide (LPS) diluted in LGM-3 medium from 1 mg/ml stock solution was added to the cells and incubation proceeded for another 4 hr at 37° C., 5% CO2 and 95% humidified air. SB203580, a known p38 MAP kinase inhibitor and DMSO were used as positive and negative controls, respectively. After 4 hr stimulation with LPS, the level of TNF-α from each sample was analyzed by using the human TNF-α cytoset ELISA kit. EC50 values (the drug concentration at which 50% of the maximal observed TNF-α production is inhibited) were determined using a standard sigmoidal dose response curve fitting algorithm (Prism 2.0, GraphPad Software Inc). A duplicate set of cell plates were assayed for cell viability using the Resazurin dye after the cells were incubated with test compounds for 24 hr. The fluorescence of the reduction product of Resazurin was measured using a Fusion microplate fluorometer (Packard Bioscience) with λex=535 nm and λem=590 nm filters. EC50 values (the drug concentration at which 50% of the maximal observed growth inhibition is established) were determined using a standard sigmoidal dose response curve fitting algorithm (Prism 2.0, GraphPad Software Inc).

A further series has as its system HPBMC. In words: HPBMC cell viability, Resazurin. In kind it is cell-based, Human. To be noted: for EC50: HPBMC, 24 hr drug exposure, read-out: EC50 Inhibition of cell growth. On the procedure: as §1
The next series deals with HEK-293 cells. In words: cell growth inhibition, HEK-293, Resazurin, 1% FBS. As to conditions: 48 hr of drug exposure. The format is cell-based, Human. On the procedure: (§2) Human prostate adenocarcinoma (PC-3; CRL-1435), multiple myeloma (RPMI 8226; CCL-155) and embryonic kidney (HEK-293; CRL-1573) cells were all purchased from ATCC and maintained in appropriate culture media. The cells were cultured in an incubator at 37° C. in 5% CO2 and 95% humidified air.
(§3) For cell growth inhibition assays, PC-3 and HEK-293 cells were seeded at 5×10^3 and 1.5×10^3 cells/well respectively in 90 μl media containing 1% (v/v) FBS into 96 well (Corning; 3904) black-walled, clear-bottom tissue culture plates and the plates were incubated overnight to allow cells to establish and enter log phase growth. RPMI 8226 cells were seeded at 2×10^4 cells/well respectively in 90 μl media containing 1% (v/v) FBS into 96 well plates on the day of the assay. 4 mg/ml stock solutions of the compounds were prepared in 100% DMSO and stored at −20° C. The compounds were serially diluted and added in triplicate to the test wells. LT-1-85 was tested at concentrations ranging from 27 μM to 8.6 nM. Concentrations ranging from 30 μM to 9.7 nM were tested for CC-3-13P. Formula (IIB-A1) was tested at concentrations ranging from 26 μM to 8.4 nM. The plates were returned to the incubator for 48 hours. The final concentration of DMSO was 0.25% in all samples.
Following 48 hours of drug exposure, 10 μl of 0.2 mg/ml Resazurin in Mg2+, Ca2+ free phosphate buffered saline was added to each well and the plates were returned to the incubator for 3-6 hours. Since living cells metabolize Resazurin, the fluorescence of the reduction product of Resazurin was measured using a Fusion microplate fluorometer (Packard Bioscience) with λex=535 nm and λem=590 nm filters. Resazurin dye in medium without cells was used to determine the background, which was subtracted from the data for all experimental wells. […] Where the maximum inhibition of cell growth was less than 50%, an EC50 value was not determined. The data in Table 25 summarize the growth inhibitory effects of LT-1-85, CC-3-13P and formula (IIB-A1) against HEK-293, PC-3 and RPMI 8226 cells. […]
Background: Resazurin is reduced to fluorescent resorufin, in cell work by metabolically active cells.

For a further series, the system named is PC-3 cells. As to the kind of experiment: cell growth inhibition, PC-3, Resazurin, 1% FBS. As to conditions: 48 hr of drug exposure. In kind it is cell-based, Human. On the procedure: as §2, §3
Following 48 hours of drug exposure, 10 μl of 0.2 mg/ml Resazurin in Mg2+, Ca2+ free phosphate buffered saline was added to each well and the plates were returned to the incubator for 3-6 hours. Since living cells metabolize Resazurin, the fluorescence of the reduction product of Resazurin was measured using a Fusion microplate fluorometer (Packard Bioscience) with λex=535 nm and λem=590 nm filters. Resazurin dye in medium without cells was used to determine the background, which was subtracted from the data for all experimental wells. […] Where the maximum inhibition of cell growth was less than 50%, an EC50 value was not determined. The data in Table 25 summarize the growth inhibitory effects of LT-1-85, CC-3-13P and formula (IIB-A1) against HEK-293, PC-3 and RPMI 8226 cells. The EC50 values indicate that LT-1-85 and CC-3-13P are cytotoxic against HEK-293, PC-3 and RPMI 8226 cells. Formula (IIB-A1) is cytotoxic against RPMI 8226 cells.

A further series concerns IL-10 production. As to the kind of experiment: LPS-stimulated IL-10 levels in RPMI 8226 cells (ELISA). In kind it is cell-based, human. As to conditions: 20 μM to 0.16 μM. On the procedure:
Ninety μl of 2.8×10^5/ml and 0.5 ml of 5×10^5/ml RMPI 8226 cells (#CCL-155C, American Type Culture Collection) were seeded in 96-well and 6-well plate in LGM-3 medium, respectively. Cells were cultured overnight at 37° C., 5% CO2 and 95% humidified air. 8-point serial dilution of TTL3 or formula (IIB-A1) was added to cells for 1 hr at the final concentration ranging from 20 μM to 0.16 μM. DMSO was used as control. After 1 hr, 50 ng/ml of LPS diluted in LGM-3 medium from 1 mg/ml stock solution was added to stimulate the cells for additional 10 hr. Supernatants were collected and IL-8 and IL-10 levels were analyzed by using the human IL-8 and IL-10 cytoset ELISA kits.

Where two headings read alike, the source gives them in different places.

Consider `C=C[C@@]1(C)CCC=C2[C@H]1CC[C@@H]1[C@](C)(C(=O)N3CCOCC3)CCC[C@@]21C` [LT-1-85], for which, in series [1], the inhibition at 0.1 µg/mL turned out to be 10%. Moreover, in series [1], the inhibition at 1 µg/mL was found to be 45%. The inhibition at 10 µg/mL in series [1] came out at 55%. In addition, the EC50 in series [2] turned out to be 2300 nM; in series [2] (Homo sapiens, PBMC, 5 h), 1900 nM; with HPBMC, 3.6 µM; in the series with HPBMC (Homo sapiens, 24 h) it was 3.8 µM; in the series on HEK-293 cells, 22 µM; in the series with HEK-293 cells (Homo sapiens, HEK293, 48 h), 23 µM. Further, the EC50 is 19 µM in the series on PC-3 cells and 22 µM in the series on PC-3 cells (Homo sapiens, PC-3, 48 h).
Consider `C=C[C@@]1(C)CCC=C2[C@H]1CC[C@@H]1[C@](C)(C(=O)NC3CCCCC3)CCC[C@@]21C` [Formula (IIB-A1), N-Cyclohexylamide Derivative of TTL], for which the EC50 is 1400 nM in series [2] (Homo sapiens, PBMC, 5 h); over 26 µM in the series on HPBMC (Homo sapiens, 24 h); over 26 µM with HEK-293 cells (Homo sapiens, HEK293, 48 h); over 26 µM with PC-3 cells (Homo sapiens, PC-3, 48 h). Besides, the “cell growth of HPBMC (in words)” value with HPBMC (concentrations up to 26 μM) is “did not inhibit”. Also, the “LPS-induced IL-10 production” value is “reduces LPS-induced IL-8 and IL-10 production in a dose-dependent manner” in the series with IL-10 production; “inhibits the LPS-induced IL-8 and IL-10 production” with IL-10 production (listed as formula (IIB-A1)).
As to `C=C[C@@]1(C)CCC=C2[C@H]1CC[C@@H]1[C@](C)(C(=O)OC)CCC[C@@]21C` [TTL3], in series [1], the inhibition at 0.1 µg/mL was determined as 30%, the inhibition at 1 µg/mL amounted to 55% and the inhibition at 10 µg/mL came out at 70%. In the series with IL-10 production, the “LPS-induced IL-10 production” value is on record as “inhibits the IL-10 production in a dose-dependent manner”.

These data come from patent publication US7893299B2, “Interleukin-1 and tumor necrosis factor-αmodulators; syntheses of such modulators and methods of using such modulators” (Nereus Pharmaceuticals, Inc., priority 2005, dated 2011).
